Test results as given in patent US9717243B2, “Piperidinecarboxylic acid derivatives as fungicides” (priority 2013, dated 2017).
Where two headings read alike, the source gives them in different places.

Experiments:
[1] = LogP by HPLC on reversed phase columns (EEC directive 79/831 Annex V.A8); format: physicochemical
Protocol: Calibration was done with straight-chain alkan2-ones (with 3 to 16 carbon atoms) with known LogP values (measurement of LogP values using retention times with linear interpolation between successive alkanones). Lambda-max-values were determined using UV-spectra from 200 nm to 400 nm and the peak values of the chromatographic signals.

[2] = system: Plasmopara viticola; assay: Plasmopara test (grapevines)/preventive; conditions: preventive, evaluated 6 days after inoculation, 0% = untreated control, 100% = no disease
Protocol: Plasmopara Test (Grapevines)/Preventive • Solvent: 24.5 parts by weight of acetone • 24.5 parts by weight of dimethylacetamide • Emulsifier: 1 part by weight of alkylaryl polyglycol ether
After the spray coating has dried on, the plants are inoculated with an aqueous spore suspension of Plasmopara viticola and then remain for 1 day in an incubation cabinet at approximately 20° C. and a relative atmospheric humidity of 100%. The plant is subsequently placed for 4 days in a greenhouse at approximately 21° C. and a relative atmospheric humidity of approximately 90%. The plants are then misted and placed for 1 day in an incubation cabinet.
The test is evaluated 6 days after the inoculation.

[3] = system: Phytophthora infestans; format: in vivo; conditions: 100 ppm of active ingredient; preventive, tomatoes; evaluated 3 days after inoculation; 0% = untreated control, 100% = no disease
[4] = Table 2, compounds of formula (IV), LC-UV, acidic range, 0.1% formic acid in water and acetonitrile as eluent, read-out: Log P[a]

| SMILES | Log P[a] [1] | further results |
| --- | --- | --- |
| C#CCOc1ccc(F)c(F)c1C1CC(c2csc(C3(C(=O)OC)CCN(C(=O)Cn4nc(C(F)F)cc4C(F)F)CC3)n2)=NO1 (stereo not shown) [Example I-3] | 3.61 | Efficacy % ([2]; 1 ppm of active ingredient): 93% |
| COC(=O)C1(c2nc(C3=NOC(c4ccccc4OS(C)(=O)=O)C3)cs2)CCN(C(=O)Cn2nc(C(F)F)cc2C(F)F)CC1 (stereo not shown) [Example I-7, methyl 1-{[3,5-bis(difluoromethyl)-1H-pyrazol-1-yl]acetyl}-4-[4-(5-{2-[(methylsulfonyl)oxy]phenyl}-4,5-dihydro-1,2-oxazol-3-yl)-1,3-thiazol-2-yl]piperidine-4-carboxylate] | – | chromatographic logP ([1]; Table 1, compounds of formula (I), LC-UV, acidic range, 0.1% formic acid in water and acetonitrile as eluent, read-out: Log P[a]): 3.27; Efficacy % ([2]; 100 ppm of active ingredient): 100%; Efficacy % [3]: 95% |
| COC(=O)C1(c2nc(C3=NOC(c4ccccc4OS(C)(=O)=O)C3)cs2)CCN(C(=O)Nc2cc(C(F)F)ccc2C(F)F)CC1 (stereo not shown) [Example I-9] | 3.42 | Efficacy % ([2]; 100 ppm of active ingredient): 100%; Efficacy % [3]: 91% |
| COC(=O)C1(c2nc(C3=NOC(c4ccccc4OS(C)(=O)=O)C3)cs2)CCN(C(=O)Nc2cn(C(F)F)nc2C)CC1 (stereo not shown) [Example I-10] | 2.64 | Efficacy % ([2]; 100 ppm of active ingredient): 96%; Efficacy % [3]: 94% |
| COC(=O)C1(c2nc(C3=NOC(c4ccccc4OS(C)(=O)=O)C3)cs2)CCN(C(=O)Nc2cc(C)ccc2C)CC1 (stereo not shown) [Example I-11] | 3.29 | Efficacy % ([2]; 100 ppm of active ingredient): 100%; Efficacy % [3]: 100% |
| C#CCOc1ccc(F)c(F)c1C1CC(c2csc(C3(C(=O)OC)CCN(C(=O)Cn4nc(C(F)F)cc4C)CC3)n2)=NO1 (stereo not shown) [Example I-66] | 3.33 | Efficacy % ([2]; 1 ppm of active ingredient): 76% |
| CC(C)OC(=O)C1(C#N)CCN(C(=O)Cn2nc(C(F)F)cc2C(F)F)CC1 [IV-10] | 2.84 | – |
| CCOC(=O)C1(C#N)CCN(C(=O)Cn2nc(C(F)F)cc2C(F)F)CC1 [IV-11] | 2.55 | – |
| N#CC1(C(=O)O)CCN(C(=O)Cn2nc(C(F)F)cc2C(F)F)CC1 [IV-12] | 1.44 | – |
| COC(=O)C1(C#N)CCN(C(=O)Cn2nc(C(F)F)cc2C(F)F)CC1 [IV-13, methyl 1-{[3,5-bis(difluoromethyl)-1H-pyrazol-1-yl]acetyl}-4-cyanopiperidine-4-carboxylate] | – | chromatographic logP [1, 4]: 2.26 |
| Cc1cc(C(F)(F)F)nn1CC(=O)N1CCC(C#N)(C(=O)O)CC1 [IV-14] | 1.50 | – |
| COC(=O)C1(C#N)CCN(C(=O)Nc2cc(C(F)F)ccc2C(F)F)CC1 [IV-16] | 2.47 | – |
| COC(=O)C1(C#N)CCN(C(=O)Nc2cc(C(F)F)nn2C)CC1 [IV-17, methyl 4-cyano-1-{[3-(difluoromethyl)-1-methyl-1H-pyrazol-5-yl]carbamoyl}piperidine-4-carboxylate] | – | chromatographic logP [1, 4]: 1.53 |
| COC(=O)C1(C#N)CCN(C(=O)Nc2cn(C(F)F)nc2C)CC1 [IV-18] | 1.51 | – |
| COC(=O)C1(C#N)CCN(C(=O)Nc2cc(C)ccc2C)CC1 [IV-19] | 2.26 | – |
| CC(C)(C)OC(=O)C1(C#N)CCN(C(=O)Nc2ccccc2)CC1 [IV-20] | 2.82 | – |
| N#CC1(C(=O)O)CCN(C(=O)Nc2ccccc2)CC1 [IV-21] | 1.16 | – |
| CC(C)(C)OC(=O)C1(C#N)CCN(C(=O)Nc2ccc(F)cc2)CC1 [IV-22] | 2.96 | – |
| CC(C)(C)OC(=O)C1(C#N)CCN(C(=O)Cc2ccccc2)CC1 [IV-23] | 2.96 | – |
| CC(C)(C)OC(=O)C1(C#N)CCN(C(=O)Cc2ccc(Cl)cc2)CC1 [IV-24] | 3.37 | – |
| CC(C)(C)OC(=O)C1(C#N)CCN(C(=S)Nc2ccccc2C(F)(F)F)CC1 [IV-25] | 3.50 | – |
| CC(C)(C)OC(=O)C1(C#N)CCN(C(=S)Nc2cccc(Cl)c2)CC1 [IV-26] | 3.72 | – |
| CC(C)(C)OC(=O)C1(C#N)CCN(C(=S)Nc2ccc(OC(F)(F)F)cc2)CC1 [IV-27] | 4.01 | – |

| SMILES | Log P[a] [1] | further results |
| --- | --- | --- |
| CC(C)(C)OC(=O)C1(C#N)CCN(C(=O)Nc2ccc(Cl)c(C(F)(F)F)c2)CC1 [IV-28] | 4.06 | – |
| CC(C)(C)OC(=O)C1(C#N)CCN(C(=O)Nc2cccc(C#N)c2)CC1 [IV-29] | 2.88 | – |
| N#CC1(C(=O)O)CCN(C(=O)Nc2ccc(Cl)c(C(F)(F)F)c2)CC1 [IV-30] | 2.42 | – |
| N#Cc1cccc(NC(=O)N2CCC(C#N)(C(=O)O)CC2)c1 [IV-31] | 1.29 | – |
| N#CC1(C(=O)O)CCN(C(=S)Nc2cccc(Cl)c2)CC1 [IV-32] | 2.01 | – |
| N#CC1(C(=O)O)CCN(C(=S)Nc2ccc(OC(F)(F)F)cc2)CC1 [IV-33] | 2.33 | – |
| COC(=O)C1(C#N)CCN(C(=O)Nc2cn(C)nc2C(F)F)CC1 [IV-34] | 1.40 | – |
| CCC(C)NC(=O)C1(C#N)CCN(C(=S)Nc2cccc(Cl)c2)CC1 (stereo not shown) [IV-35] | 2.69 | – |
| CCC(C)NC(=O)C1(C#N)CCN(C(=O)Nc2cccc(C#N)c2)CC1 (stereo not shown) [IV-36] | 1.28 | – |
| CCC(C)NC(=O)C1(C#N)CCN(C(=O)Cc2ccc(Cl)cc2)CC1 (stereo not shown) [IV-37] | 2.46 | – |
| CCC(C)NC(=O)C1(C#N)CCN(C(=O)Cc2ccccc2)CC1 (stereo not shown) [IV-38] | 2.08 | – |
| CCC(C)NC(=O)C1(C#N)CCN(C(=O)Nc2ccc(Cl)c(C(F)(F)F)c2)CC1 (stereo not shown) [IV-39] | 3.15 | – |
| CC(C)=CCN(C)C(=O)C1(C#N)CCN(C(=O)Nc2ccc(F)cc2)CC1 [IV-40] | 2.71 | – |
| CC(C)=CCN(C)C(=O)C1(C#N)CCN(C(=O)Nc2ccccc2)CC1 [IV-41] | 2.61 | – |
| CC(C)=CCNC(=O)C1(C#N)CCN(C(=O)Nc2ccccc2)CC1 [IV-42] | 2.26 | – |
| CC(C)=CCNC(=O)C1(C#N)CCN(C(=O)Nc2ccc(Cl)cc2)CC1 [IV-43] | 2.68 | – |
| CC(C)=CCNC(=O)C1(C#N)CCN(C(=O)Nc2ccc(F)cc2)CC1 [IV-44] | 2.16 | – |
| CCC(C)NC(=O)C1(C#N)CCN(C(=O)Nc2ccccc2)CC1 (stereo not shown) [IV-45] | 2.13 | – |
| CC(C)=CCN(C)C(=O)C1(C#N)CCN(C(=O)Nc2ccc(Cl)cc2)CC1 [IV-46] | 3.03 | – |
| CCCCNC(=O)C1(C#N)CCN(C(=O)Nc2ccccc2)CC1 [IV-48] | 2.20 | – |
| COC(=O)C1(C#N)CCN(C(=O)CCl)CC1 [VI-1, methyl 1-(chloroacetyl)-4-cyanopiperidine-4-carboxylate] | – | chromatographic logP ([1]; Table 3, compounds of formula (VI), LC-UV, acidic range, 0.1% formic acid in water and acetonitrile as eluent, read-out: Log P[a]): 1.27 |
| Cn1nc(C(F)F)cc1NC(=O)Oc1ccccc1 [phenyl [3-(difluoromethyl)-1-methyl-1H-pyrazol-5-yl]carbamate] | – | chromatographic logP ([1]; pH 2.7, synthesis intermediates in preparation examples, read-out: LogP (pH 2.7)): 2.18 |
